Publication PMC5543288, “Psychostimulant Effect of the Synthetic Cannabinoid JWH-018 and AKB48: Behavioral, Neurochemical, and Dopamine Transporter Scan Imaging Studies in Mice” (Frontiers in Psychiatry, 2017)
Where a name gives a salt, the structure may show the parent alone. Read-outs that look alike come from different tables or passages of the source.

Key:
[1] = system: DA release in the nucleus accumbens (NAc) shell; test: In vivo brain microdialysis, NAc shell extracellular DA; design: species or system mouse; conditions: for increase of NAc shell extracellular DA levels (maximal/peak): JWH-018 0.3 mg/kg i.p. (long-lasting), AKB48 0.3 mg/kg i.p. (peak); for NAc shell extracellular DA levels: awake freely moving mice, i.p.: amphetamine 10 mg/kg, cocaine 20 mg/kg, JWH-018 0.3 mg/kg, AKB48 0.3 mg/kg
Experimental: Male ICR (CD-1®) mice, 25–30 g (ENVIGO. Harlan Italy; S. Pietro al Natisone, Italy) were anesthetized with Isoflurane (3%; 200 ml/min) and implanted with vertical dialysis probe (1 mm dialyzing portion) prepared with AN69 fibers (Hospal Dasco, Bologna, Italy) in the NAc shell (A + 1.4, L 0.4 from bregma, V-4.8 from dura) according to the mouse brain atlas by Paxinos and Franklin ([40]). On the day following surgery, probes were perfused with Ringer’s solution (147 mM NaCl, 4 mM KCl, 2.2 mM CaCl2) at a constant rate of 1 µl/min. Dialyzate samples (10 µl) were injected into an HPLC equipped with a reverse phase column (C8 3.5 um, Waters, USA) and a coulometric detector (ESA, Coulochem II) to quantify DA. The first electrode of the detector was set at +130 mV (oxidation) and the second at −175 mV (reduction). The composition of the mobile phase was as follows: 50 mM NaH2PO4, 0.1 mM Na2-EDTA, 0.5 mM n-octyl sodium sulfate, 15% (v/v) methanol, pH 5.5. […] At the end of each experiment, animals were sacrificed and their brains removed and stored in formalin (8%) for histological examination to verify the correct placement of the microdialysis probe.

[2] = system: [3H]-DA uptake in mouse striatal synaptosomes; test: [3H]-DA uptake in striatal synaptosomes; type: biochemical; conditions: for effect on [3H]-DA uptake: GBR 12783 20 nM, JWH-018 and AKB48 100 nM and 1 µM; for reduction of [3H]-DA uptake: cocaine 1 µM, amphetamine 1 µM, added 5 min before 50 nM [3H]-DA, 10 min at 37°C
Experimental: (§1) On the day of the experiment, the animal was euthanized, the brain was rapidly removed, and both striata isolated. Thereafter, a crude synaptosomal (P2) fraction was prepared as follows: the striata were suspended in ice-cold buffered sucrose solution (0.32 M, pH 7.4) and homogenized. The homogenate was centrifuged (10 min, 2,100 g, 4°C) to remove nuclei and debris. The supernatant was further centrifuged at 13,500 g for 20 min at 4°C. For [^3H]-WIN 35,428 binding experiments, the P2 pellet was resuspended in 50 mM Tris–HCl, 100 mM NaCl, pH 7.4. For [^3H]-DA release experiments, the P2 pellet was then resuspended in 5 ml of Kreb’s solution (mM: NaCl 118; KCl 4.4; CaCl2 1.2; MgSO4 1.2; KH2PO4 1.2; NaHCO3 25; glucose 10), gassed 20 min with a mixture of 95% O2 plus 5% CO2 containing [^3H]-DA (50 nM; Perkin Elmer, Monza, Italy), disodium EDTA (0.03 mM), and ascorbic acid (0.05 mM; to prevent [^3H]-DA degradation).
After synaptosomal preparation, the suspension was maintained under a light and continuous oxygenation (95% O2, 5% CO2) for 20 min at 37°C. Thereafter, 0.5 ml aliquots of striatal synaptosomal suspension were prepared. […] After this period, the reaction was stopped by filtration through microporus nylon filters (0.45 µm, 13 mm; Analytical Technology, Brugherio, Italy). The filters were then washed with 1 ml ice-cold Kreb’s solution and the radioactivity accumulated on synaptosomes was extracted by eluting two times with 1 ml of warm NaOH (1 N) and then determined by liquid scintillation spectrometer. Non-specific uptake was measured by following the same procedure at 0°C.

[3] = molecular target: T1, human DAT (Homo sapiens, UniProt Q01959); test: [3H]-WIN 35,428 competition binding, CHO membranes transfected with human DAT
T1 construct: purchased Perkin Elmer; host or cells: CHO cells transfected with human DAT (membrane preparation)
T1 sequence (Q01959 whole entry): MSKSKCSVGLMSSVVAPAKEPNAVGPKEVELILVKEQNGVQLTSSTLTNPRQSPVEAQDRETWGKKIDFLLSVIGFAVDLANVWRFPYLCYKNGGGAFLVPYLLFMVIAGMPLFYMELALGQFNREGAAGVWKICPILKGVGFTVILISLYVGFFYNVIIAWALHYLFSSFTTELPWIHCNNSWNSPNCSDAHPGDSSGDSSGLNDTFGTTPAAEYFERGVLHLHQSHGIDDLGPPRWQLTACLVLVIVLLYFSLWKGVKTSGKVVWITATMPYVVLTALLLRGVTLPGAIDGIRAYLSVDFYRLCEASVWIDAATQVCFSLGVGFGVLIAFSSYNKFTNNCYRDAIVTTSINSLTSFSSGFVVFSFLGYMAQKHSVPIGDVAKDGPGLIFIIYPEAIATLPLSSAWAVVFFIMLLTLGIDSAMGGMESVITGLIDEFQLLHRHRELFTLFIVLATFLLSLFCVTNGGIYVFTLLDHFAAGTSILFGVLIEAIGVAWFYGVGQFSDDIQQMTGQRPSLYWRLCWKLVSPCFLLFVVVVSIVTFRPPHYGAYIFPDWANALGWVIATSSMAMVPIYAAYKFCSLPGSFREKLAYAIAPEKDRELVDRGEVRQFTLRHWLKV
Experimental: At the end of the incubation time, bound and free radioactivity were separated by filtering the assay mixture through Whatman GF/B glass fiber filters in a Brandel cell harvester (Brandel, Unterföhring, Germany).

[4] = molecular target: CD-1 murine CB1 receptors; conditions: ref [6]; read-out: Ki for CB1 receptors, CD-1 murine preparation; cited from earlier work
[5] = system: male CD-1 mice; test: Spontaneous locomotor activity (ANY-maze video tracking); type: in vivo, mouse; conditions: for facilitation of spontaneous locomotion after pretreatment with AM 251 / facilitation of spontaneous locomotion after coadministration of SCH23390 and haloperidol: JWH-018 0.3 mg/kg; for facilitation of spontaneous locomotion after pretreatment with AM 251 / facilitation of spontaneous locomotion after coadministration of SCH23390 and haloperidol / time in the central zone versus peripheral area of the cage / total distance traveled (spontaneous locomotion) / duration of the increase of spontaneous locomotion: AKB48 1 mg/kg; for facilitation of spontaneous locomotion after pretreatment with AM 251: AM 251 1 mg/kg i.p. 20 min before; for facilitation of spontaneous locomotion after coadministration of SCH23390 and haloperidol: SCH23390 0.1 mg/kg i.p. + haloperidol 0.05 mg/kg i.p. 20 min before; for time in the central zone versus peripheral area of the cage / immobility time / total distance traveled (spontaneous locomotion) / duration of the increase of spontaneous locomotion: acute i.p.: JWH-018 0.3 mg/kg; for immobility time: AKB48 1 mg/kg (30 min after administration); for immobility time / total distance traveled (spontaneous locomotion): amphetamine 10 mg/kg; for immobility time / total distance traveled (spontaneous locomotion) / duration of the increase of spontaneous locomotion / time spent in the peripheral arena: cocaine 20 mg/kg; for total distance traveled (spontaneous locomotion): monitored 240 min; for spontaneous locomotion, antagonist by itself: AM 251 1 mg/kg i.p., SCH23390 0.1 mg/kg i.p., haloperidol 0.05 mg/kg i.p.; for time spent in the peripheral arena: acute i.p.: amphetamine 10 mg/kg
Experimental: Drugs were administered by intraperitoneal injection in a volume of 4 μl/g. The used doses of JWH-018 (0.3 and 1 mg/kg i.p.) and AKB48 (0.3 and 1 mg/kg i.p.) were chosen based on previous studies ([6], [7], [9], [10]).
The spontaneous locomotor activity was measured by using the ANY-maze video tracking system (Ugo Basile, application version 4.99 g Beta). The mouse was placed in a square plastic cage (60 cm × 60 cm) located in a sound- and light-attenuated room and motor activity was monitored for 240 min. Four mice were monitored in parallel in each experiment. Parameters measured were distance traveled (meter), total time in the peripheral zone (seconds), total time in the central zone (seconds), and immobility time (seconds; the animal was considered immobile when 95% of his image remained in the same place for at least 2 s). Parameters were analyzed every 15 min for a maximum of 240 min and to avoid mice olfactory cues, cages were carefully cleaned with a dilute (5%) ethanol solution and washed with water between animal trials. All experiments were performed between 9:00 a.m. and 1:00 p.m.

[6] = system: spontaneous [3H]-DA efflux from mouse striatal synaptosomes; test: Spontaneous [3H]-DA release from striatal synaptosomes; type: biochemical; conditions: amphetamine 10 µM, cocaine 100 nM, JWH-018 and AKB48 100 nM and 1 µM
Experimental: as §1
After synaptosomal preparation, 0.5 ml aliquots of the suspension were distributed on microporous filters placed at the bottom of a set of parallel superfusion chambers maintained at 37°C and perfused with aerated (95% O2/5% CO2) Kreb’s solution (0.3 ml/min). After 30 min of superfusion to equilibrate the system, 5-min fractions were collected from the 30th to the 75th min (nine samples). […] At the end of the experiment, the radioactivity of the samples and filters was determined by liquid scintillation spectrometry (LS1800 Beckman). In view of the results obtained, in a separate set of experiments, [^3H]-DA uptake was also evaluated.

[7] = molecular target: T2, mouse DAT (Mus musculus, UniProt Q61327); test: [3H]-WIN 35,428 competition binding, mouse striatal synaptosomes
T2 construct: DAT expressed in mouse striatal nerve terminals; from tissue; host or cells: mouse striatum, crude synaptosomal (P2) fraction
T2 sequence (Q61327 whole entry): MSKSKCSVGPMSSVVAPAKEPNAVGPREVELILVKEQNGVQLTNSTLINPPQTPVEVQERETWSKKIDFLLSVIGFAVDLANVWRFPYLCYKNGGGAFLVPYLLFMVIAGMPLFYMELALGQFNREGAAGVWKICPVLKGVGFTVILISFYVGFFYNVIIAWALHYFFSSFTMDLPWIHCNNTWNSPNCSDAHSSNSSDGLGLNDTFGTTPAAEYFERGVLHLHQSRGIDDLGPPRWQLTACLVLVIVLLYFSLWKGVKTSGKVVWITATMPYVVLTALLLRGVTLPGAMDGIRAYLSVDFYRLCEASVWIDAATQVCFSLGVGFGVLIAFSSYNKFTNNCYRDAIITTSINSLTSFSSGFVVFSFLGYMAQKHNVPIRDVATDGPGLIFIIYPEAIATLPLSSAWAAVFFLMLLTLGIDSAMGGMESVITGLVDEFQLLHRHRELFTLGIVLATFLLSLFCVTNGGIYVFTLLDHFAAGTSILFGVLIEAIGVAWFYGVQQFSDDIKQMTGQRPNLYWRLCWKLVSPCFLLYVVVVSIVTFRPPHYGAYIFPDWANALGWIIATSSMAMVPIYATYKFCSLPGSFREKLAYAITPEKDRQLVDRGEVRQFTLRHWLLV
Experimental: Competition binding experiments were carried out incubating 8 nM [^3H]-WIN 35,428 (specific activity 84 Ci/mmol; Perkin Elmer, Boston, MA, USA) with CHO membranes transfected with human DAT (Perkin Elmer) or mouse striatal synaptosomes with different concentration of the examined compounds for 120 min at 4°C. Non-specific binding was determined in the presence of 1 µM GBR 12783. At the end of the incubation time, bound and free radioactivity were separated by filtering the assay mixture through Whatman GF/B glass fiber filters in a Brandel cell harvester (Brandel, Unterföhring, Germany). Filter bound radioactivity was counted in a Perkin Elmer 2810TR scintillation counter (Perkin Elmer).
as §1

[8] = molecular target: T3, dopamine transporter (DAT) in the mouse striatum (Mus musculus, UniProt Q61327); test: In vivo DaTSCAN SPECT-CT imaging, striatal [123I]-FP-CIT binding; conditions: i.p. 30 min before tracer: cocaine 20 mg/kg, amphetamine 10 mg/kg, JWH-018 1 mg/kg, AKB48 1 mg/kg
T3 construct: from tissue; host or cells: striatum of living CD-1 male mice (in vivo imaging)
T3 sequence (Q61327 whole entry): as above
Experimental: 18 CD-1 male mice were divided into six different groups (three mice per treatment). […] A control group (i.e., naïve untreated mice) was also included in the study. Thirty minutes after drug administration, all mice were submitted to an intravenous injection with a solution of [^123I]-DaTSCAN (15–20 MBq, ≤200 µl). The body temperature of the animals was maintained at 37°C during the imaging sessions and under the cage, between imaging sessions, using a heating lamp. The SPECT–CT whole-body images were acquired at 1 h and 30 min after [^123I]-FP-CIT injection, with the initial tomographic acquisition starting nearly 15 min after the injection. Each SPECT-CT whole-body acquisition consisted of one bed positions (36 mm), 60 min, 128 views over 360 ([35]). The used energy window is 119–219 keV and the images were reconstructed by using the iterative EM-ML algorithm, including the collimator response. CT images have been acquired, using the digital X-ray imaging system integrated into the YAP(S)PET scanner ([36]). Acquisition parameters for X-ray projections were X-ray tube voltage = 35 keV, anode current = 1 mA, exposure = 1 s, 64 views over 360, and magnification factor = 1.2. Subtraction of dark noise contribution and flat field corrections was accomplished to obtain final images. The CT data were reconstructed by using the FDK algorithm. Amide software ([37]) has been used for images’ registration, visualization and analysis. The size of the ROIs was voxels (100 mm^3 volume), corresponding to entire striatum. These ROIs were used as a template. To avoid the variability of the slice selection and to gain statistical power, the entire striatum volume for the analysis was used. The template was positioned manually (without changing the size and form of the ROIs) on the SPECT images with the backing of anatomical information from LONI MAP 2003 MRI mouse atlas ([38], [39]). For analysis of striatal [^123I]-FP-CIT binding, two consecutive horizontal slices (total thickness approximately 4 mm) with the highest striatal binding were selected. The landmarks for positioning were the intra-orbital glands, striatum, and the borders of the brain. Striatal binding ratios are expressed as average activity per unit volume [Bq/mm^3], each value has been calculated as the ratio between the activity inside the ROI and the ROI volume, normalized for injected activity and for mouse brain weight.

[9] = system: GABAA-mediated post-synaptic currents in VTA DA neurons; design: method as in PMID 26686391, PMID 25232109, PMID 28373077; conditions: rat VTA DA neurons, ex vivo; ref [26], [82], [83]; cited from earlier work
[10] = system: dopamine (DA) transmission in the NAc shell; design: method as in PMID 26327678; conditions: 0.25 mg/kg i.p., not at 0.125 or 0.5 mg/kg i.p.; not in NAc core and mPFC; ref [9]; cited from earlier work

Compound | immobility time [5] | total distance traveled (spontaneous locomotion) [5] | duration of the increase of spontaneous locomotion [5] [min] | spontaneous [3H]-DA efflux from striatal synaptosomes [6] | Ki [7] [nM] | reduction of [123I]-FP-CIT binding in the striatum [8] | spontaneous locomotion, antagonist by itself [5] | also measured
CCCCCn1nc(C(=O)NC23CC4CC(CC(C4)C2)C3)c2ccccc21 [AKB48, N-(1-adamantyl)-1-pentyl-1H-indazole-3-carboxamide] | increased | facilitated the spontaneous locomotion only in the first 15 min | 15 | did not affect | > 10000 | ~ 42% |  | time of peak extracellular DA level after administration ([1]; AKB48 0.3 mg/kg i.p.): 40 min; increase of NAc shell extracellular DA levels (maximal/peak) [1]: ~ 150 % of baseline values; NAc shell extracellular DA levels [1]: significantly increased; effect on [3H]-DA uptake [2]: ineffective; Ki [3]: 4590 nM; Ki [4]: 5.34 nM; facilitation of spontaneous locomotion after pretreatment with AM 251 [5]: prevented; facilitation of spontaneous locomotion after coadministration of SCH23390 and haloperidol [5]: prevented; time in the central zone versus peripheral area of the cage [5]: spent more time in the central zone
C(=C\c1ccccc1)/CN1CCN(CCOC(c2ccccc2)c2ccccc2)CC1 [GBR 12783, 1-(2-benzhydryloxyethyl)-4-[(E)-3-phenylprop-2-enyl]piperazine;dihydrochloride, reference compound] |  |  |  |  |  |  |  | Ki ([3]; 8 nM [3H]-WIN 35,428, 120 min at 4°C, mean ± SEM, read-out: hDAT-CHO membranes Ki): 1.93 ± 0.14 nM; Ki ([7]; 8 nM [3H]-WIN 35,428, 120 min at 4°C, mean ± SEM, read-out: Mouse striatal synaptosomes Ki): 1.72 ± 0.11 nM
CN1CCc2cc(Cl)c(O)cc2C(c2ccccc2)C1 (stereo not drawn) [SCH23390, 8-chloro-3-methyl-5-phenyl-1,2,4,5-tetrahydro-3-benzazepin-7-ol, reference compound] |  |  |  |  |  |  | did not alter the spontaneous locomotion | 
COC(=O)[C@H]1[C@@H](OC(=O)c2ccccc2)C[C@@H]2CC[C@H]1N2C [Cocaine, reference compound] | reduced the immobility time | induced long-lasting increases | 90 | induced a significant increase | 193 ± 16 | ~ 40% |  | reduction of [3H]-DA uptake [2]: ~50%; time spent in the peripheral arena [5]: increase the time spent in the peripheral arena
CCCCCn1cc(C(=O)c2cccc3ccccc23)c2ccccc21 [JWH-018, 1-pentyl-3-(1-naphthoyl)indole] | reduced the immobility time | induced long-lasting increases | 90 | did not affect | > 10000 | ~ 39% |  | increase of NAc shell extracellular DA levels (maximal/peak) [1]: ~ 150 % of baseline values; NAc shell extracellular DA levels [1]: significantly increased; effect on [3H]-DA uptake [2]: ineffective; Ki [3]: 7180 nM; Ki [4]: 5.82 nM; facilitation of spontaneous locomotion after pretreatment with AM 251 [5]: prevented; facilitation of spontaneous locomotion after coadministration of SCH23390 and haloperidol [5]: prevented; time in the central zone versus peripheral area of the cage [5]: spent more time in the central zone; GABAA-mediated post-synaptic currents [9]: decreases; dopamine (DA) transmission in the NAc shell [10]: increases
Cc1c(C(=O)NN2CCCCC2)nn(-c2ccc(Cl)cc2Cl)c1-c1ccc(I)cc1 [AM 251, reference compound] |  |  |  |  |  |  | did not alter the spontaneous locomotion | 
O=C(CCCN1CCC(O)(c2ccc(Cl)cc2)CC1)c1ccc(F)cc1 [haloperidol, 4-[4-(4-chlorophenyl)-4-hydroxypiperidin-1-yl]-1-(4-fluorophenyl)butan-1-one, reference compound] |  |  |  |  |  |  | did not alter the spontaneous locomotion | 
CC(N)Cc1ccccc1 (stereo not drawn) [Amphetamine, reference compound] | reduced the immobility time | induced long-lasting increases |  | induced a significant increase | 622 ± 53 | ~ 25% |  | reduction of [3H]-DA uptake [2]: ~40%; time spent in the peripheral arena [5]: increase the time spent in the peripheral arena
